Assay results reported in US10563263B2, “Genetic polymorphisms associated with statin response and cardiovascular diseases, methods of detection and uses thereof” (CELERA CORPORATION, priority 2010, dated 2020).

Test system: CHD or CVD
Assay: WOSCOPS: SNP by pravastatin treatment interaction, logistic regression (synergy index), cohort source; End-point (CHD or CVD) of the marker not given
Assay type: in vivo, human

Structure (SMILES): CC[C@H](C)C(=O)O[C@H]1C[C@H](O)C=C2C=C[C@H](C)[C@H](CC[C@@H](O)C[C@@H](O)CC(=O)O)[C@H]21 [Pravastatin, pravastatin]
- OR (marker rs1068705, pravastatin vs placebo): 0.74
- OR (marker rs1564078, pravastatin vs placebo): 0.79
- OR (marker rs9557509, pravastatin vs placebo): 1.42
- OR (marker rs10802865, pravastatin vs placebo): 1.16
- OR (marker rs11668038, pravastatin vs placebo): 1.25
- OR (marker rs17035071, pravastatin vs placebo): 1.22
